For 15 compounds, EC50 results are on record in patent publication US10584115B2, “Substituted pyridine and pyrazine BMI-1 inhibitors” (PTC Therapeutics, Inc., priority 2013, dated 2020).

This assay has as its system Bmi-1 protein. The assay is described as follows: Sandwich ELISA Assay (Bmi-1 protein level in HT-1080 cells after compound treatment). Format: cell-based. The note with it: Table 1, Bmi-1 sandwich ELISA, read-out: ELISA EC50 value for Bmi-1 protein. Put shortly:
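Sandwich ELISA quantified Bmi-1 protein against recombinant standard (125–8000 pg/mL), with lysates captured overnight at 4 °C and signal by HRP/TMB at 450 nm (570 nm reference). Lysates came from HT-1080 cells incubated 40–48 h with test compounds in 0.5% DMSO.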
(An ELISA detects its analyte on a solid surface through an enzyme-linked reagent.)
Usually EC50 stands for the midpoint of the concentration-response curve. Regarding `Cc1nn2ccccc2c1-c1cncc(Nc2ccccc2)n1` [compound 564, 6-(2-methylpyrazolo[1,5-a]pyridin-3-yl)-N-phenylpyrazin-2-amine], the EC50 was 100 to 3000 nM. With `COc1ccc(Nc2cccc(-n3c(C)nc4ccc(F)cc43)n2)cc1` [Cpd 586, 6-(6-fluoro-2-methyl-1H-benzimidazol-1-yl)-N-(4-methoxyphenyl)pyridin-2-amine] the figure was 1 to 10 nM. Regarding `Cc1ccc(C)n1-c1cc(Nc2ccc(Cl)cc2)nc(-n2c(C)nc3ccccc32)c1` [compound 618, N-(4-chlorophenyl)-4-(2,5-dimethyl-1H-pyrrol-1-yl)-6-(2-methyl-1H-benzimidazol-1-yl)pyridin-2-amine], the EC50 was in the range of 100 to 3000 nM. Turning to `Cc1nc2ccccc2n1-c1cncc(Nc2ccc(C(C)(C)C)cc2)n1` [compound 659, N-(4-tert-butylphenyl)-6-(2-methyl-1H-benzimidazol-1-yl)pyrazin-2-amine], the EC50 lay in the range of 100 to 3000 nM.

Regarding `COc1ccc(Nc2cncc(-n3c(C)nc4ccc(F)cc43)n2)cc1` [compound 553, 6-(6-fluoro-2-methyl-1H-benzimidazol-1-yl)-N-(4-methoxyphenyl)pyrazin-2-amine], the EC50 lay within 1 to 10 nM. Under `Nc1cc(Nc2ccc(OC(F)F)cc2)nc(-c2c(C(F)(F)F)nc3ccccn23)c1` [compound 170, N^2-[4-(difluoromethoxy)phenyl]-6-[2-(trifluoromethyl)imidazo[1,2-a]pyridin-3-yl]pyridine-2,4-diamine] stands 100 to 3000 nM; under `Cc1ccc(Nc2cncc(-n3c(C)nc4ccccc43)n2)cc1` [compound 562, 6-(2-methyl-1H-benzimidazol-1-yl)-N-(4-methylphenyl)pyrazin-2-amine], 1 to 10 nM; under `Cc1nc2ncccc2n1-c1cccc(Nc2ccc(C(F)(F)F)cc2)n1` [compound 139, 6-(2-methyl-1H-imidazo[4,5-b]pyridin-1-yl)-N-[4-(trifluoromethyl)phenyl]pyridin-2-amine], 10 to 100 nM. Turning to `O=[N+]([O-])c1ccc(Nc2cncc(-c3c(C(F)(F)F)nc4ccccn34)n2)cc1` [Cpd 59, N-(4-nitrophenyl)-6-[2-(trifluoromethyl)imidazo[1,2-a]pyridin-3-yl]pyrazin-2-amine], the EC50 fell in the range of 100 to 3000 nM. With `Cc1nc2ccccc2n1-c1cncc(Nc2nc3ccc(C(F)(F)F)cc3s2)n1` [compound 440, N-[6-(2-methyl-1H-benzimidazol-1-yl)pyrazin-2-yl]-6-(trifluoromethyl)-1,3-benzothiazol-2-amine] the figure was 100 to 3000 nM; with `FC(F)Oc1ccc(Nc2cncc(-n3c(C(F)(F)F)nc4ccccc43)n2)cc1` [compound 44, N-[4-(difluoromethoxy)phenyl]-6-[2-(trifluoromethyl)-1H-benzimidazol-1-yl]pyrazin-2-amine], 10 to 100 nM. `COc1ccc(Nc2cncc(-c3c(C(F)(F)F)nc4sccn34)n2)cc1` [compound 119, N-(4-methoxyphenyl)-6-[6-(trifluoromethyl)imidazo[2,1-b][1,3]thiazol-5-yl]pyrazin-2-amine]: the EC50 is less than 1 nM. In the case of `N#Cc1cc(Nc2ccc(OC(F)F)c(F)c2)nc(-c2c(CO)nc3ccc(F)cn23)c1` [compound 394, 2-{[4-(difluoromethoxy)-3-fluorophenyl]amino}-6-[6-fluoro-2-(hydroxymethyl)imidazo[1,2-a]pyridin-3-yl]pyridine-4-carbonitrile], the EC50 was 10 to 100 nM. With `FC(F)(F)c1ccc(Nc2cncc(-n3c(C(F)(F)F)nc4ccccc43)n2)cc1` [compound 14, 6-[2-(trifluoromethyl)-1H-benzimidazol-1-yl]-N-[4-(trifluoromethyl)phenyl]pyrazin-2-amine], the EC50 is 100 to 3000 nM. For `FC(F)(F)Oc1ccc(Nc2cccc(-c3c(C(F)(F)F)nc4ncccn34)n2)cc1` [compound 99, N-[4-(trifluoromethoxy)phenyl]-6-[2-(trifluoromethyl)imidazo[1,2-a]pyrimidin-3-yl]pyridin-2-amine], the EC50 lay within 100 to 3000 nM.
